Measurements published in patent US20240083888A1, “SMALL MOLECULE INHIBITOR FOR CATHEPSIN C AND MEDICINAL USE THEREOF” (REISTONE BIOPHARMA COMPANY LIMITED, priority 2020, published 2024).
Where two headings read alike, the source gives them in different places.

Assays:
CatC = CatC (Homo sapiens (Human), UniProt P53634); assay: In vitro CatC cell activity experiment in U937 cell line; assay type: cell-based
Protocol: The U937 cell line was resuscitated and passed for about two generations, and the cell line with good growth status was selected. The cell suspension was transferred into a centrifuge tube, and centrifuged at 800 to 1000 rpm for 3 to 5 minutes. The supernatant was discarded. An appropriate volume of culture medium was added to the centrifuge tube, which was gently pipetted to resuspend the cells evenly. The cells were counted using a Vi-Cell XR cell counter. The cell suspension was adjusted to an appropriate concentration. The cell suspension was added into a 384-well plate ([…]). The compound was formulated into a 10 mM solution with DMSO. The compound was diluted with DMSO to obtain a 1 mM solution, and a semi-logarithmi dilution was carried out by HPD300 with DMSO to obtain 10 concentrations. Gly-Phe-AFC was formulated into a 35 mM solution with DMSO and divided. […] After adding the compounds and incubating for 1 hour in an incubator, substrate-AFC was added (12.5 μL was added to the plate). The plate was incubated for 30 minutes and read. […] XLFit was used to draw the drug efficacy inhibition rate curve and calculate the IC50 value. 4-parameter model [fit=(A+((B−A)/(1+((C/x)^D))))] was used.

rhCatC = rhCatC (Homo sapiens (Human), UniProt P53634); assay: In vitro enzyme activity experiment of rhCatC (AMC fluorescence assay); assay type: biochemical; conditions: rhCatC enzyme, substrate H-Gly-Arg-AMC; read-out: Biological activity IC50
Sequence of rhCatC (P53634 25-134): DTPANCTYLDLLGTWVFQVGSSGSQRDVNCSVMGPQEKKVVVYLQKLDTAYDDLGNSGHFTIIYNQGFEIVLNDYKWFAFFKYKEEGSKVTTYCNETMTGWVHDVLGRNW
Sequence of rhCatC (P53634 231-394): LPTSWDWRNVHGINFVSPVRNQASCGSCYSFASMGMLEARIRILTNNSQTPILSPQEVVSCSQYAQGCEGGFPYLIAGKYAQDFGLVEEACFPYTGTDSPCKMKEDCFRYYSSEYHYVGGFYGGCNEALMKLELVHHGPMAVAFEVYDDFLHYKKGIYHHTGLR
Sequence of rhCatC (P53634 395-463): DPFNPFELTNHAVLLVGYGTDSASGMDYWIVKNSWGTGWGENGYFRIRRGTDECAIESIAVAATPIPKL
Protocol: The in vitro inhibitory effect of compounds and positive control on rhCatC enzyme activity was evaluated by AMC fluorescence assay. rhCatC can catalyze the reaction of substrate peptide H-Gly-Arg-AMC, and release AMC to generate fluorescence. […] The compound was diluted with DMSO to a 384-well echo plate at a concentration of 100× of the highest concentration at the beginning of the experiment. 0.2 μL of the diluted compound was pipetted to a black-bottomed 384-well reaction plate for later use. The negative control well was DMSO. • 2) Activation of rhCatC: RhCatC and rhCatL were added to the activation buffer to obtain a final concentration of rhCatC of 100 μg/mL and a final concentration of rhCatL of 20 μg/mL, and incubated at room temperature for 1 hour. • 3) Enzyme activity reaction: Activated rhCatC was diluted to 0.4 μg/mL with the reaction buffer. The solution was added to the black-bottom 384-well reaction plate ([…]). 10 μL of the buffer was added for the vehicle control group. The plate containing compounds in its wells was incubated at room temperature for 30 minutes.
The RLU data was read, the inhibition rate was calculated, and the IC50 value was calculated according to the fitting curve of concentration and inhibition rate.

[1] = U937 cells, CatC cell activity, read-out: Biological activity IC50

| SMILES | IC50 (CatC; [1]) | IC50 (rhCatC) | IC50 (CatC) |
| --- | --- | --- | --- |
| N#CC(Cc1ccc2c(c1)CCc1ccccc1-2)NC(=O)C1(N)CCOCC1 (stereo not drawn) [Compound 7, 4-Amino-N-(1-cyano-2-(9,10-dihydrophenanthren-2-yl)ethyl)tetrahydro-2H-pyran-4-carboxamide] | 10.2 nM | 6.8 nM | – |
| N#C[C@H](Cc1ccc2c(c1)CCc1ccccc1-2)NC(=O)[C@@H]1CNCCCO1 [Compound 8, (S)—N—((S)-1-Cyano-2-(9,10-dihydrophenanthren-2-yl)ethyl)-1,4-oxazepane-2-carboxamide] | 220 nM | 60 nM | – |
| N#CC(Cc1cc2c(cc1F)-c1ccc(F)cc1CO2)NC(=O)[C@@H]1CNCCCO1 (stereo partly drawn) [Compound 12, (2S)—N-(1-Cyano-2-(2,8-difluoro-6H-benzo[c]chromen-3-yl)ethyl)-1,4-oxazepane-2-carboxamide] | – | 16 nM | 23 nM |
| N#Cc1ccc2c(c1)COc1cc(CC(C#N)NC(=O)[C@@H]3CNCCCO3)ccc1-2 (stereo partly drawn) [Compound 13, (2S)—N-(1-Cyano-2-(8-cyano-6H-benzo[c]chromen-3-yl)ethyl)-1,4-oxazepane-2-carboxamide] | – | 37 nM | 87.6 nM |
| N#C[C@H](Cc1ccc2c(c1)OCc1cc(F)c(F)cc1-2)NC(=O)[C@@H]1CNCCCO1 [Compound 16, (S)—N—((S)-1-Cyano-2-(8,9-difluoro-6H-benzo[c]chromen-3-yl)ethyl)-1,4-oxazepane-2-carboxamide] | – | 91 nM | 186 nM |
| N#C[C@H](Cc1ccc2c(c1)OCc1cc(F)c(F)cc1-2)NC(=O)C1(N)CCOCC1 [Compound 17, (S)-4-Amino-N-(1-cyano-2-(8,9-difluoro-6H-benzo[c]chromen-3-yl)ethyl)tetrahydro-2H-pyran-4-carboxamide] | – | 5.7 nM | 6.2 nM |
| N#Cc1cc2c(cn1)-c1cc(F)c(CC(C#N)NC(=O)[C@@H]3CNCCCO3)cc1OC2 (stereo partly drawn) [Compound 18, (2S)—N-(1-Cyano-2-(3-cyano-9-fluoro-5H-chromeno[4,3-c]pyridin-8-yl)ethyl)-1,4-oxazepane-2-carboxamide] | – | 49 nM | 29.5 nM |
| N#C[C@H](Cc1cc2c(cc1F)-c1ccc(F)cc1CO2)NC(=O)[C@@H]1CNCCCO1 [Compound 20, (S)—N—((S)-1-Cyano-2-(2,8-difluoro-6H-benzo[c]chromen-3-yl)ethyl)-1,4-oxazepane-2-carboxamide] | – | 11 nM | 7.8 nM |
| N#Cc1ccc2c(c1)COc1cc(C[C@@H](C#N)NC(=O)[C@@H]3CNCCCO3)c(Cl)cc1-2 [Compound 21, (S)—N—((S)-2-(2-Chloro-8-cyano-6H-benzo[c]chromen-3-yl)-1-cyanoethyl)-1,4-oxazepane-2-carboxamide] | – | – | 24.6 nM |
| N#CC(Cc1ccc2c(c1)OCc1ccc(C3COC3)cc1-2)NC(=O)[C@@H]1CNCCCO1 (stereo partly drawn) [Compound 28, (2S)—N-(1-Cyano-2-(9-(oxetan-3-yl)-6H-benzo[c]chromen-3-yl)ethyl)-1,4-oxazepane-2-carboxamide] | – | – | 50.1 nM |
| N#Cc1ccc2c(c1)-c1cc(F)c(CC(C#N)NC(=O)[C@@H]3CNCCCO3)cc1OC2 (stereo partly drawn) [Compound 31, (2S)—N-(1-Cyano-2-(9-cyano-2-fluoro-6H-benzo[c]chromen-3-yl)ethyl)-1,4-oxazepane-2-carboxamide] | – | – | 38.4 nM |
| N#C[C@H](Cc1ccc2c(c1)CCN(c1ccc(F)cc1)C2)NC(=O)C1(N)CCOCC1 [Compound 57, (S)-4-Amino-N-(1-cyano-2-(2-(4-fluorophenyl)-1,2,3,4-tetrahydroisoquinolin-6-yl)ethyl)tetrahydro-2H-pyran-4-carboxamide] | – | 48 nM | – |
| N#C[C@H](Cc1ccc2c(c1)CC(=O)N(c1ccc(F)cc1)C2)NC(=O)C1(N)CCCCC1 [Compound 58, (S)-1-Amino-N-(1-cyano-2-(2-(4-fluorophenyl)-3-oxo-1,2,3,4-tetrahydroisoquinolin-6-yl)ethyl)cyclohexane-1-carboxamide] | 99.3 nM | – | – |
